Measurements published in publication PMC9228535, “Antistaphylococcal Activities and ADME-Related Properties of Chlorinated Arylcarbamoylnaphthalenylcarbamates” (Pharmaceuticals, 2022).
Values after ≈ are worked out from the molar mass of the structure shown.

Assays:
[1] = Lipophilicity determination by RP-HPLC (log k, log D); type: physicochemical
Experimental: Lipophilicity was measured by reversed-phase high performance liquid chromatography (RP-HPLC) under isocratic conditions with methanol as the organic modifier in the aqueous mobile phase and the logarithm of the capacity factor k was calculated, which is used as the lipophilicity index converted to the log P scale. In addition to the log k values, the logarithm of the distribution coefficient DpH at pH 6.5 and 7.4 was determined to clarify the behavior of the compounds under physiological conditions and possible ionization. Instead of water, a buffer of suitable pH was used as part of the mobile phase. In addition to the above-mentioned experimental methods, commercially available ChemBioDraw Ultra 13.0 and ACD/Percepta ver. […] In addition to lipophilicity, other parameters discussed in Ro5, such as molecular weight, number of H-bond donors/acceptors, as well as parameters not reported in Ro5, but characterizing the physicochemical properties of the prepared molecules, such as number of rotatable bonds, were predicted using ACD/Percepta. Moreover, for each R substituent, bulkiness expressed as molar volume (MV [cm^3]), a parameter describing the tail length/branching of each carbamates, was calculated.
A HPLC separation module Agilent 1200 Series (Agilent Technologies, Santa Clara, CA, USA) equipped with a Dual Absorbance Detector (DAD SL G1315C, Agilent Technologies) was used. A chromatographic column Symmetry® C18 5 μm, 4.6 × 250 mm, Part No. W21751W016 (Waters Corp, Milford, MA, USA) was used. The HPLC separation process was monitored by ChemStation for LC 3D systems (Agilent Technologies). […] The total flow of the column was 1.0 mL/min, injection 20 μL, column temperature 40 °C, and sample temperature 10 °C. The detection wavelength of 210 nm was chosen. A KI methanolic solution was used for the determination of the dead times (tD). Retention times (tR) were measured in minutes. The capacity factors k were calculated according to the formula k = (tR − tD)/tD, where tR is the retention time of the solute, and tD is the dead time obtained using an unretained analyte. The distribution coefficients DpH were calculated according to the formula DpH = (tR − tD)/tD. Each experiment was repeated three times.

[2] = system: Enterococcus faecalis ATCC 29212; assay: MIC, microtitration broth method; type: cell-based
Experimental: (§1) In vitro antibacterial activity of the synthesized compounds was evaluated against representatives of multidrug-resistant bacteria, three clinical isolates of methicillin-resistant S. aureus: clinical isolate of animal origin, MRSA 63718 (Department of Infectious Diseases and Microbiology, Faculty of Veterinary Medicine, University of Veterinary Sciences Brno, Czech Republic), carrying the mecA gene; and MRSA SA 630 [46] and MRSA SA 3202 [46] (National Institute of Public Health, Prague, Czech Republic), both of human origin. Suspected colonies were confirmed by PCR; a 108bp fragment specific for S. aureus was detected. All isolates were tested for the presence of the mecA gene encoding methicillin resistance. […] Vancomycin-susceptible methicillin-susceptible S. aureus (VS-MSSA) ATCC 29213, obtained from the American Type Culture Collection, was used as the reference and quality control strain. Enterococcus faecalis ATCC 29212 was obtained from the American Type Culture Collection and used as the reference and quality control strain.
(§2) The minimum inhibitory concentrations (MICs) were evaluated by the microtitration broth method according to the CLSI [64, 65] with some modifications. The compounds were dissolved in DMSO (Sigma, St. Louis, MO, USA) to get a concentration […] and diluted in a microtitration plate in an appropriate medium, namely, Cation Adjusted Mueller–Hinton (CaMH, Oxoid, Basingstoke, UK) for staphylococci (S. aureus ATCC 29213, clinical isolates of MRSA 63718, SA 630, and SA 3202) and brain heart infusion (BHI, Oxoid) for E. faecalis ATCC 29212, to reach the final concentration of 256-0.125 µg/mL. The plate was inoculated by the tested microorganisms. The final concentration of bacterial cells was 10^5 for bacteria. Ampicillin (Sigma) was used as reference drugs. A drug-free control and a sterility control were included. The plates were incubated for 24 h at 37 °C for staphylococci and E. faecalis ATCC 29212 (stability evaluation of the carbamates, see Supplementary materials, Table S1). […] The experiments were repeated three times.

[3] = system: MRSA SA 3202; assay: MIC, microtitration broth method; type: cell-based; conditions: Staphylococcus aureus, 24 h
Experimental: (§3) All the investigated compounds were screened for in vitro antibacterial activity against the reference and quality control strain Staphylococcus aureus ATCC 29213 and clinical isolates of methicillin-resistant S. aureus (MRSA) 63718, SA 630, and SA 3202 [14]. Activities are expressed as the minimum inhibitory concentrations (MICs), see Table 2. In addition to the MICs, the minimum bactericidal concentrations (MBCs) were also determined.
as §1, §2

[4] = system: MRSA 63718; assay: MIC, microtitration broth method; type: cell-based; conditions: Staphylococcus aureus, MRSA, 24 h
Experimental: as §3, §1, §2

[5] = system: MRSA SA 630; assay: MIC, microtitration broth method; type: cell-based; conditions: Staphylococcus aureus, 24 h
Experimental: as §3, §1, §2

[6] = system: Staphylococcus aureus ATCC 29213; assay: MIC, microtitration broth method; type: cell-based; conditions: ATCC29213, 24 h
Experimental: as §3, §1, §2

[7] = system: MRSA SA 3202; assay: MBC, agar aliquot subculture method; type: cell-based; conditions: Staphylococcus aureus
Experimental: as §3
(§4) For the S. aureus and MRSA isolates, the agar aliquot subculture method was used as a test for bactericidal agents. After the MIC value determination, the inoculum was transferred to Mueller–Hinton (Oxoid) agar using a multipoint inoculator. The plates were incubated in a thermostat at 37 °C for 24 h. The lowest concentration of test compound at which ≤5 colonies were obtained was then evaluated as MBC, corresponding to a 99.9% decrease in CFU relative to the original inoculum.

[8] = system: MRSA 63718; assay: MBC, agar aliquot subculture method; type: cell-based; conditions: Staphylococcus aureus, MRSA
Experimental: as §3, §4

[9] = system: MRSA SA 630; assay: MBC, agar aliquot subculture method; type: cell-based; conditions: Staphylococcus aureus
Experimental: as §3, §4

[10] = system: Staphylococcus aureus ATCC 29213; assay: MBC, agar aliquot subculture method; type: cell-based; conditions: ATCC29213
Experimental: as §3, §4

Which “lipophilicity (experimental log k/log D, approximate)” value [1] does the source give for `CCNC(=O)Oc1c(C(=O)Nc2cc(Cl)c(Cl)cc2Cl)ccc2ccccc12` [Compound 2, 2-[N-(2,4,5-Trichlorophenyl)carbamoyl]naphthalen-1-yl ethyl carbamate] here?
Its value is “ca. 0.83”.

What about the “log D6.5” value ([1]; RP-HPLC, MeOH 72%/acetate buffered saline pH 6.5) of the same compound?
The value was 0.8294.

What about the “log D7.4” value ([1]; RP-HPLC, MeOH 72%/acetate buffered saline pH 7.4) of the same compound?
Its value is 0.8339.

What about the log k ([1]; RP-HPLC, MeOH 72%/water 28%) of the same compound?
The log k was 0.8249.

And the “anti-enterococcal activity (in words)” value ([2]; E. faecalis ATCC 29212)?
The value was “medium activity”.

And the MIC ([2]; Enterococcus faecalis, ATCC29212, 24 h)?
Its MIC is 36.6 µM (≈ 16 µg/mL).

And the MIC [3]?
Its MIC is 0.018 µM (≈ 0.00788 µg/mL).

What about the MIC [4] of the same compound?
The MIC was 0.144 µM (≈ 0.063 µg/mL).

And the MIC [5]?
Its MIC is 0.018 µM (≈ 0.00788 µg/mL).

What about the MIC [6] of the same compound?
Its MIC is 0.018 µM (≈ 0.00788 µg/mL).

What about the MBC [7] of the same compound?
The MBC was 0.073 µM (≈ 0.032 µg/mL).

What about the MBC [8] of the same compound?
Its MBC is 0.286 µM (≈ 0.125 µg/mL).

And the MBC [9]?
The MBC was 0.144 µM (≈ 0.063 µg/mL).

What about the MBC [10] of the same compound?
The MBC was 0.018 µM (≈ 0.00788 µg/mL).
